Measured values taken from PubChem BioAssay (NCI).
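Following 48 hours of exposure in 96-well plates, responses at five concentrations were used to interpolate endpoints linearly. Definition used: TGI = concentration required for complete inhibition of growth.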

Assays:
Assay in all cases: NCI anticancer screen, dose series, 48 h
786-0 renal = tested on: 786-0 renal
UO-31 renal = tested on: UO-31 renal
MALME-3M melanoma = tested on: MALME-3M melanoma
NCI-H522 lung = tested on: NCI-H522 lung
SK-MEL-2 melanoma = tested on: SK-MEL-2 melanoma
SNB-19 CNS = tested on: SNB-19 CNS
MDA-N = tested on: MDA-N
SR leukemia = tested on: SR leukemia
U251 CNS = tested on: U251 CNS
SN12C renal = tested on: SN12C renal
NCI-H23 lung = tested on: NCI-H23 lung
CCRF-CEM leukemia = tested on: CCRF-CEM leukemia
MDA-MB-435 = tested on: MDA-MB-435
LOX IMVI melanoma = tested on: LOX IMVI melanoma
SF-295 CNS = tested on: SF-295 CNS
IGROV1 ovarian = tested on: IGROV1 ovarian
DU-145 prostate = tested on: DU-145 prostate
SK-MEL-5 melanoma = tested on: SK-MEL-5 melanoma
TK-10 renal = tested on: TK-10 renal
OVCAR-4 ovarian = tested on: OVCAR-4 ovarian
OVCAR-5 ovarian = tested on: OVCAR-5 ovarian
M14 melanoma = tested on: M14 melanoma
RPMI-8226 leukemia = tested on: RPMI-8226 leukemia
HS 578T breast = tested on: HS 578T breast
HCT-15 colon = tested on: HCT-15 colon
OVCAR-8 ovarian = tested on: OVCAR-8 ovarian
HCC-2998 colon = tested on: HCC-2998 colon
KM12 colon = tested on: KM12 colon
HOP-92 NSCLC = tested on: HOP-92 NSCLC
COLO 205 colon = tested on: COLO 205 colon
K-562 leukemia = tested on: K-562 leukemia
BT-549 breast = tested on: BT-549 breast
T-47D breast = tested on: T-47D breast
MOLT-4 leukemia = tested on: MOLT-4 leukemia
RXF 393 renal = tested on: RXF 393 renal
NCI-H460 lung = tested on: NCI-H460 lung
A549 NSCLC = tested on: A549 NSCLC
MCF7 breast = tested on: MCF7 breast
UACC-257 melanoma = tested on: UACC-257 melanoma
UACC-62 melanoma = tested on: UACC-62 melanoma
NCI-H226 lung = tested on: NCI-H226 lung
OVCAR-3 ovarian = tested on: OVCAR-3 ovarian
HT29 colon = tested on: HT29 colon
SW-620 colon = tested on: SW-620 colon
ACHN renal = tested on: ACHN renal
MDA-MB-231 breast = tested on: MDA-MB-231 breast
A498 renal = tested on: A498 renal
CAKI-1 renal = tested on: CAKI-1 renal
SK-OV-3 ovarian = tested on: SK-OV-3 ovarian
PC-3 prostate = tested on: PC-3 prostate
SF-268 CNS = tested on: SF-268 CNS
HCT-116 colon = tested on: HCT-116 colon
NCI/ADR-RES ovarian = tested on: NCI/ADR-RES ovarian
EKVX NSCLC = tested on: EKVX NSCLC
SNB-75 CNS = tested on: SNB-75 CNS
HOP-62 NSCLC = tested on: HOP-62 NSCLC
SF-539 CNS = tested on: SF-539 CNS

For `CN1CCN(C(=S)N(C)C(=O)c2ccco2)CC1`, the TGI (786-0 renal) was greater than 100 µM, the TGI (UO-31 renal) was greater than 100 µM and the TGI (MALME-3M melanoma) was greater than 100 µM. For the same compound, the TGI (NCI-H522 lung) was greater than 100 µM, the TGI (SK-MEL-2 melanoma) was greater than 100 µM and the TGI (SNB-19 CNS) was greater than 100 µM. It also gave a TGI (MDA-N) greater than 100 µM, a TGI (SR leukemia) greater than 100 µM and a TGI (U251 CNS) greater than 100 µM. The TGI (SN12C renal) was greater than 100 µM, the TGI (NCI-H23 lung) was greater than 100 µM and the TGI (CCRF-CEM leukemia) was greater than 100 µM. It also gave a TGI (MDA-MB-435) greater than 100 µM, a TGI (LOX IMVI melanoma) greater than 100 µM and a TGI (SF-295 CNS) greater than 100 µM. For the same compound, the TGI (IGROV1 ovarian) was greater than 100 µM, the TGI (DU-145 prostate) was greater than 100 µM and the TGI (SK-MEL-5 melanoma) was greater than 100 µM. The TGI (TK-10 renal) was greater than 100 µM, the TGI (OVCAR-4 ovarian) was greater than 100 µM and the TGI (OVCAR-5 ovarian) was greater than 100 µM. It also gave a TGI (M14 melanoma) greater than 100 µM, a TGI (RPMI-8226 leukemia) greater than 100 µM and a TGI (HS 578T breast) greater than 100 µM. For the same compound, the TGI (HCT-15 colon) was greater than 100 µM, the TGI (OVCAR-8 ovarian) was greater than 100 µM and the TGI (HCC-2998 colon) was greater than 100 µM. It also gave a TGI (KM12 colon) greater than 100 µM, a TGI (HOP-92 NSCLC) greater than 100 µM and a TGI (COLO 205 colon) greater than 100 µM. It also gave a TGI (K-562 leukemia) greater than 100 µM, a TGI (BT-549 breast) greater than 100 µM and a TGI (T-47D breast) greater than 100 µM. For the same compound, the TGI (MOLT-4 leukemia) was greater than 100 µM, the TGI (RXF 393 renal) was greater than 100 µM and the TGI (NCI-H460 lung) was greater than 100 µM. For the same compound, the TGI (A549 NSCLC) was greater than 100 µM, the TGI (MCF7 breast) was greater than 100 µM and the TGI (UACC-257 melanoma) was greater than 100 µM. It also gave a TGI (UACC-62 melanoma) greater than 100 µM, a TGI (NCI-H226 lung) greater than 100 µM and a TGI (OVCAR-3 ovarian) greater than 100 µM. It also gave a TGI (HT29 colon) greater than 100 µM, a TGI (SW-620 colon) greater than 100 µM and a TGI (ACHN renal) greater than 100 µM. It also gave a TGI (MDA-MB-231 breast) greater than 100 µM.
`CCc1n[nH]c(=O)n1CCCCCCCCCCCCn1c(CC)n[nH]c1=O` showed a TGI (A498 renal) greater than 100 µM, a TGI (786-0 renal) greater than 100 µM and a TGI (CAKI-1 renal) greater than 100 µM. It also gave a TGI (UO-31 renal) greater than 100 µM, a TGI (MALME-3M melanoma) of 76 µM and a TGI (NCI-H522 lung) greater than 100 µM. For the same compound, the TGI (SK-OV-3 ovarian) was greater than 100 µM, the TGI (SK-MEL-2 melanoma) was greater than 100 µM and the TGI (PC-3 prostate) was greater than 100 µM. For the same compound, the TGI (SNB-19 CNS) was greater than 100 µM, the TGI (MDA-N) was greater than 100 µM and the TGI (SR leukemia) was greater than 100 µM. The TGI (U251 CNS) was 86.4 µM, the TGI (SN12C renal) was greater than 100 µM and the TGI (NCI-H23 lung) was 94.4 µM. It also gave a TGI (SF-268 CNS) greater than 100 µM, a TGI (CCRF-CEM leukemia) of 64.3 µM and a TGI (MDA-MB-435) of 76.3 µM. It also gave a TGI (LOX IMVI melanoma) of 99 µM, a TGI (SF-295 CNS) greater than 100 µM and a TGI (IGROV1 ovarian) greater than 100 µM. For the same compound, the TGI (SK-MEL-5 melanoma) was 32.8 µM, the TGI (TK-10 renal) was greater than 100 µM and the TGI (OVCAR-4 ovarian) was greater than 100 µM. The TGI (OVCAR-5 ovarian) was greater than 100 µM, the TGI (M14 melanoma) was 95.8 µM and the TGI (RPMI-8226 leukemia) was greater than 100 µM. For the same compound, the TGI (HS 578T breast) was greater than 100 µM, the TGI (HCT-15 colon) was greater than 100 µM and the TGI (HCT-116 colon) was greater than 100 µM. For the same compound, the TGI (NCI/ADR-RES ovarian) was greater than 100 µM, the TGI (OVCAR-8 ovarian) was greater than 100 µM and the TGI (HCC-2998 colon) was greater than 100 µM. It also gave a TGI (KM12 colon) greater than 100 µM, a TGI (HOP-92 NSCLC) greater than 100 µM and a TGI (EKVX NSCLC) greater than 100 µM. It also gave a TGI (COLO 205 colon) of 75.5 µM, a TGI (SNB-75 CNS) of 80.6 µM and a TGI (K-562 leukemia) greater than 100 µM. For the same compound, the TGI (BT-549 breast) was 77.5 µM, the TGI (T-47D breast) was 82.9 µM and the TGI (MOLT-4 leukemia) was 67.7 µM. For the same compound, the TGI (RXF 393 renal) was greater than 100 µM, the TGI (NCI-H460 lung) was 71.9 µM and the TGI (A549 NSCLC) was greater than 100 µM. For the same compound, the TGI (HOP-62 NSCLC) was greater than 100 µM, the TGI (MCF7 breast) was greater than 100 µM and the TGI (UACC-257 melanoma) was 40.2 µM. For the same compound, the TGI (UACC-62 melanoma) was 61.3 µM, the TGI (SF-539 CNS) was greater than 100 µM and the TGI (NCI-H226 lung) was greater than 100 µM. For the same compound, the TGI (OVCAR-3 ovarian) was greater than 100 µM, the TGI (HT29 colon) was greater than 100 µM and the TGI (SW-620 colon) was greater than 100 µM. The TGI (ACHN renal) was greater than 100 µM and the TGI (MDA-MB-231 breast) was greater than 100 µM.
